Test results reported in ChEMBL document CHEMBL1134125, “Piperazinyl benzamidines: synthesis and affinity for the delta opioid receptor” (Bioorg Med Chem Lett, 2001).
pKi: −log10 of the molar value.

Columns and labels:
Mu-type opioid receptor = Mu-type opioid receptor (Rattus norvegicus, UniProt P33535); assay: Inhibition of binding of [3H]DAMGO to opioid receptor mu 1 from rat brain membrane.
[1] = biological target: Delta-type opioid receptor (Rattus norvegicus, UniProt P33533); assay: Inhibition of binding of [3H]-DPDPE to opioid receptor delta 1 from rat brain membrane.
Delta-type opioid receptor, sequence (P33533 whole entry): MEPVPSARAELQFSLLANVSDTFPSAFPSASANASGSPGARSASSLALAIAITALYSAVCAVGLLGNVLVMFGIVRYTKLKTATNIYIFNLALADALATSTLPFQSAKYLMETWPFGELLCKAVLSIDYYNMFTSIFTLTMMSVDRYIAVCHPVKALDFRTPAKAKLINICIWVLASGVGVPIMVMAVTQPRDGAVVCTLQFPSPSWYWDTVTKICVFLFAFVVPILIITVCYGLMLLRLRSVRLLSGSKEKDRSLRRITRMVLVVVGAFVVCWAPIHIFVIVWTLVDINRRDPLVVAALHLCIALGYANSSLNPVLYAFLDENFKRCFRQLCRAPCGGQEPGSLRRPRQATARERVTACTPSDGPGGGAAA

Mu-type opioid receptor, sequence (P33535 whole entry): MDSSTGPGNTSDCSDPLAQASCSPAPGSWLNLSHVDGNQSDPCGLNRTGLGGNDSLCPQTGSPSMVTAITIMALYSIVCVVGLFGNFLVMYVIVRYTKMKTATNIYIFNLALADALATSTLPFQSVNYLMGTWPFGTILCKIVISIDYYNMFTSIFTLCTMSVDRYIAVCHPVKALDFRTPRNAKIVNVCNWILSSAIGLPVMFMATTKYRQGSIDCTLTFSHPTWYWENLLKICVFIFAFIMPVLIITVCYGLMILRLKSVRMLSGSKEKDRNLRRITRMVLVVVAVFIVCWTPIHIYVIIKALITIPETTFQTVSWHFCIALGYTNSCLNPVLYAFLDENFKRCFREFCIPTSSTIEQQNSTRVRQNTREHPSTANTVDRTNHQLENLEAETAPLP

Compound | pKi (Mu-type opioid receptor) | pKi [1]
CCN1CCN(/C(=N\c2cccc(Cl)c2)c2ccc(C(=O)N(CC)CC)cc2)CC1 | < 6.00 | 7.20
CCN(CC)C(=O)c1ccc(/C(=N/c2ccccc2)N2CCCN(CCc3ccccc3)CC2)cc1 | 6.40 | 6.27
CCN1CCN(/C(=N\c2cccc(Br)c2)c2ccc(C(=O)N(CC)CC)cc2)CC1 | < 5.00 | 7.24
CCN(CC)C(=O)c1ccc(/C(=N/c2ccccc2Cl)N2CCN(CCOC)CC2)cc1 | < 5.00 | 7.27
CCN(CC)C(=O)c1ccc(/C(=N/c2ccccc2C(F)(F)F)N2CCN(CCc3ccccc3)CC2)cc1 | 6.00 | 6.26
CCN(CC)C(=O)c1ccc(/C(=N/c2ccccc2)N2CCN(CCc3cccs3)CC2)cc1 | < 5.00 | 6.12
CCN(CC)C(=O)c1ccc(/C(=N/c2ccccc2C(F)(F)F)N2CCN(CCOC)CC2)cc1 | 5.53 | 7.64
CCN1CCN(/C(=N\c2ccccc2)c2ccc(C(=O)N(CC)CC)cc2)CC1 | 6.00 | 7.80
COC(=O)c1ccc(/C(=N/c2ccccc2)N2CCCN(CCc3ccccc3)CC2)cc1 | 6.63 | 6.09
CCN(CC)C(=O)c1ccc(/C(=N/c2ccc(Cl)cc2)N2CCN(Cc3ccccc3)CC2)cc1 | < 5.00 | 6.85
CCCN1CCN(/C(=N\c2cccc(Cl)c2)c2ccc(C(=O)N(CC)CC)cc2)CC1 | 5.02 | 6.75
CCN(CC)C(=O)c1ccc(/C(=N/c2ccccc2C(F)(F)F)N2CCN(Cc3ccccc3)CC2)cc1 | 5.92 | 8.91
CCN1CCN(/C(=N\c2ccccc2Cl)c2ccc(C(=O)OC)cc2)CC1 | < 6.00 | 6.65
C=CCN1C[C@H](C)N(/C(=N\c2ccccc2)c2ccc(C(=O)N(CC)CC)cc2)C[C@H]1C |  | 6.77
CCN1CCN(/C(=N\c2ccccc2F)c2ccc(C(=O)N(CC)CC)cc2)CC1 | < 6.00 | 6.93
CCN1CCN(/C(=N\c2ccccc2Cl)c2ccc(C(=O)N(CC)CC)cc2)CC1 | < 6.00 | 7.04
CCN(CC)C(=O)c1ccc(/C(=N/c2ccccc2Cl)N2CCN(CCc3cccs3)CC2)cc1 | < 5.00 | 7.02
C=CCN1CCN(/C(=N\c2ccccc2)c2ccc(C(=O)N(CC)CC)cc2)CC1 | 6.00 | 6.07
CCN(CC)C(=O)c1ccc(/C(=N/c2ccccc2Cl)N2CCCN(CCc3ccccc3)CC2)cc1 | 6.21 | 7.53
C=CCN1CCN(/C(=N\c2ccccc2Cl)c2ccc(C(=O)N(CC)CC)cc2)CC1 | 5.12 | 7.69
CCN(CC)C(=O)c1ccc(/C(=N/c2ccccc2)N2CCN(Cc3ccccc3)CC2)cc1 | < 5.00 | 6.67
CCCN(CCC)C(=O)c1ccc(/C(=N/c2ccccc2Cl)N2CCN(CC)CC2)cc1 | 5.41 | 6.53
CCN(CC)C(=O)c1ccc(/C(=N/c2ccccc2Cl)N2CCN(Cc3ccccc3)CC2)cc1 | < 5.00 | 7.93
CCCN1CCN(/C(=N\c2ccccc2Cl)c2ccc(C(=O)OC)cc2)CC1 | 5.68 | 7.06
CCN1CCN(/C(=N\c2cccc(F)c2)c2ccc(C(=O)N(CC)CC)cc2)CC1 | < 5.00 | 7.23
COC(=O)c1ccc(/C(=N/c2ccccc2Cl)N2CCCN(CCc3ccccc3)CC2)cc1 | 6.71 | 7.00
CCN1CCN(/C(=N\c2cc(Cl)cc(Cl)c2)c2ccc(C(=O)N(CC)CC)cc2)CC1 | < 6.00 | 6.56
C=CCN1CCN(/C(=N\c2cccc(Cl)c2)c2ccc(C(=O)N(CC)CC)cc2)CC1 | < 5.00 | 6.80
CCCN(CCC)C(=O)c1ccc(/C(=N/c2ccccc2OC)N2CCN(CC)CC2)cc1 | 5.41 | 5.99
C=CCN1C[C@H](C)N(/C(=N\c2ccccc2)c2ccc(C(=O)OC)cc2)C[C@H]1C |  | 6.39
